# Reference: patent publication US4960790A, “Derivatives of taxol, pharmaceutical compositions thereof and methods for the preparation thereof” (University of Kansas, priority 1989, dated 1990)
# Where a name gives a salt, the structure may show the parent alone. Read-outs that look alike come from different tables or passages of the source.
# How the values were obtained:
# Solubility = type: physicochemical
# [1] = Chemical stability in buffer or water; type: physicochemical
# Description: The compound was subjected to stability studies according to the following procedures.
# (§1) Stabilities of derivatives at various pHs were studied at 25° and 37°. The plasma studies were conducted at 37° in rat and human plasma. Human plasma was obtained from Watkins Hospital and rat plasma was obtained from the Animal Care Unit of the University of Kansas. The derivative concentration used was around 20-25 μg/ml. A stock solution of the compound was prepared at 0.8-1.0 mg/mL and was added to plasma to give the desired concentration (20-25 μg/mL). One hundred microliter samples were removed and was quenched with 250 uL. acetonitrile and centrifuged to precipitate the plasma proteins. The degradation kinetics were studied by HPLC plotting peak area vs. time. The t90 and t50 were calculated. Both chemical and plasma studies were followed by high performance liquid chromatography using a RP-8 column (15 cm) and a precolumn (5 cm). The detector was set at 227 nm. The mobile phase consisted of 0.02M acetate (pH 5): acetonitrile 50:50 or 35:65 and the flow rate ranged from 1-1.5 mL/min or the same solvents containing 0.001M tetrabutylammoniumydrogensulphate and a flow rate of 1 mL/min.
# The identity of this peak was further confirmed by the degradation studies of the new derivatives. Thus, 2'(DMG) taxol was incubated with water at 37° and the product was concentrated and purified by preparative TLC. The product after purification was analyzed by HPLC and spectroscopic methods.
# [2] = Plasma stability, human plasma; type: in vitro ADME; details: 37° C.
# Description: as §1, with “The derivative concentration used was around 20-25 μg/ml. A stock solution of the compound was prepared at 0.8-1.0 mg/mL and was added to plasma to give the desired concentration (20-25 μg/mL).” left out
# [3] = test system: human mammary carcinoma MX-1 xenograft; experiment: Subrenal capsule human mammary carcinoma MX-1 xenograft in mice; details: for ANML BODY WT DIFF (test minus control) / TEST BODY WT CHG / # OF ANMLS ALIVE CALC/TOTAL / Average tumor WEIGHT CHANGE (DELTA) / Average tumor weight, FINAL: Q4D; for ANML BODY WT DIFF (test minus control) / TEST BODY WT CHG: Day 1 to 11; for # OF ANMLS ALIVE CALC/TOTAL / Average tumor WEIGHT CHANGE (DELTA) / Average tumor weight, FINAL / % T/C: Day 11; for % T/C: Q4D Days 1, 5, 9
# Source text: The procedures followed are those described at pages 23-24 of NIH Publication No. 84-2635, In Vivo Cancer Model (February 1984).
# In the procedure, test groups of mice (6 mice per test group) and control groups of 12 mice per group are utilized. A tumor fragment (human mammary carcinoma MX-1 xenograft), is implanted under the membranous covering of the kidney of each mouse.
# Day 0: Anesthetize animals. Record body weight (Weigh Day 1). Implant tumor, measure and record. Randomize animals after they recover from the anesthetic. Run bacterial cultures. Determine solubilities of test agent. Record deaths daily.
# Day 1: Check cultures. Discard experiment if contaminated. Prepare test materials. Initiate test agent injections (in the nape of the neck) based on individual body weight. Treatment is Q4D on Days 1, 5, and 9. Prepare test agent fresh on each injection day and administer based on individual body weight for that day.
# Days 5 and 9: Prepare test agent fresh on each injection day and administer based on individual body weight for that day.
# Day 11: End and evaluate experiment. Record body weights (Weigh Day 2). Measure tumor in OMU's (Ocular Micrometer Unit--10 OMU's=1 mm) and record.
# The parameter measured is mean tumor weight change (delta) based on length and width measurements in millimeters. Mean animal body weights are computed for Day 1 and Day 11, compute T/C for all test groups with>65% survivors on Day 11. An excessive body weight change difference (test minus control) may also be used in evaluating toxicity. The dimensions are measured and recorded in Ocular Micrometer Units (OMU). A computer is utilized for the following:
# (1) Converts OMU's to millimeters (mm).
# (2) Calculates tumor weights (mgs) from tumor dimensions (mm×mm) following the formula for the volume of a prolate ellipsoid: [formula] (3) Calculates the change (delta) in mean tumor weight for each group of mice:
# Change in Mean Tumor Weight=Mean Tumor WeightFINAL -Mean Tumor WeightINITIAL.
# (4) Calculates the change (delta) in mean tumor weight for test (T) and control (C) groups.
# (5) Calculates T/C% for all test groups with>65% survivors on Final Evaluation Day: [formula]
# microtubule assembly = experiment: In vitro microtubule assembly kinetics; type: biochemical; details: rank order
# Description: (A) In vitro Microtubule Assembly Kinetics Studies
# The microtubule assembly study was conducted using both 2' and 7-derivatives according to the in vitro procedures disclosed, for example, in Mellado et al., Biochemical and Biophysical Research Communications, Vol. 124, No. 2 (1984), pp. 329-336; Magri et al., J. Org. Chem., 51, 797-802 (1986); and Parness et al., Biochemical and Biophysical Research Communications, Vol. 105, No. 3, pp. 1082-1091 (1982).
# B-16 melanoma cells = experiment: In vitro B16 melanoma cell proliferation; type: cell-based; details: rank order
# Description: These studies were conducted according to standard procedures as described in Donoso and Himes, Cancer Biochem. Biophysics, vol. 7, (1984), p. 133.
# microtubules = details: in vitro / cells, in words; cited from earlier work
structure (smiles),measurement,setting,value
"CCN(CC)CCC(=O)O[C@@H](C(=O)O[C@H]1C[C@@]2(O)[C@@H](OC(=O)c3ccccc3)[C@@H]3[C@]4(OC(C)=O)CO[C@@H]4C[C@H](O)[C@@]3(C)C(=O)[C@H](OC(C)=O)C(=C1C)C2(C)C)[C@@H](NC(=O)c1ccccc1)c1ccccc1 [Compound 3, HCl salt of 2'-(3-(N,N-diethylamino)propionyl)taxol]",solubility,Solubility,~ 0.8 mg/mL
same,half-life,"[1]; 0.02 M Acetate, 0.01 mg/mL, pH 3.5, 25° C.",439 h
same,half-life,"[1]; 0.02 M Phosphate, 0.02 mg/mL, pH 7.4, 25° C.",0.25 h
same,half-life,[2]; Human plasma,0.07 h
same,ANML BODY WT DIFF (test minus control),"[3]; Table 2, 4.50 mg/kg",1.2
same,TEST BODY WT CHG,"[3]; Table 2, 4.50 mg/kg",-2.8
same,# OF ANMLS ALIVE CALC/TOTAL,"[3]; Table 2, 4.50 mg/kg",5/5
same,Average tumor WEIGHT CHANGE (DELTA),"[3]; Table 2, 4.50 mg/kg",-.78 MGS
same,"Average tumor weight, FINAL","[3]; Table 2, 4.50 mg/kg",.00 MGS
same,ANML BODY WT DIFF (test minus control),"[3]; Table 2, 9.00 mg/kg",1.3
same,TEST BODY WT CHG,"[3]; Table 2, 9.00 mg/kg",-2.7
same,# OF ANMLS ALIVE CALC/TOTAL,"[3]; Table 2, 9.00 mg/kg",5/5
same,Average tumor WEIGHT CHANGE (DELTA),"[3]; Table 2, 9.00 mg/kg",-.87 MGS
same,"Average tumor weight, FINAL","[3]; Table 2, 9.00 mg/kg",.00 MGS
same,ANML BODY WT DIFF (test minus control),"[3]; Table 2, 18.00 mg/kg",.7
same,TEST BODY WT CHG,"[3]; Table 2, 18.00 mg/kg",-3.3
same,# OF ANMLS ALIVE CALC/TOTAL,"[3]; Table 2, 18.00 mg/kg",3/4
same,Average tumor WEIGHT CHANGE (DELTA),"[3]; Table 2, 18.00 mg/kg",-.82 MGS
same,"Average tumor weight, FINAL","[3]; Table 2, 18.00 mg/kg",.00 MGS
same,% T/C,"[3]; Table 2, 36.00 mg/kg",TOX
same,# OF ANMLS ALIVE CALC/TOTAL,"[3]; Table 2, 36.00 mg/kg",0/5
"CCN(CC)CCC(=O)O[C@@H](C(=O)O[C@H]1C[C@@]2(O)[C@@H](OC(=O)c3ccccc3)[C@@H]3[C@]4(OC(C)=O)CO[C@@H]4C[C@H](O)[C@@]3(C)C(=O)[C@H](OC(C)=O)C(=C1C)C2(C)C)[C@@H](NC(=O)c1ccccc1)c1ccccc1 [Compound 4, Methanesulphonic acid salt of 2'(N,N-diethylaminopropionyl)taxol]",solubility,Solubility,> 10000 µg/mL
same,half-life,"[1]; 0.02 M acetate, pH 4.5, 25° C.",305 h
same,half-life,"[1]; 0.02 M acetate, pH 5.5, 25° C.",20.7 h
"CC(=O)O[C@H]1C(=O)[C@]2(C)[C@@H](OC(=O)CN(C)C)C[C@H]3OC[C@@]3(OC(C)=O)[C@H]2[C@H](OC(=O)c2ccccc2)[C@]2(O)C[C@H](OC(=O)[C@H](O)[C@@H](NC(=O)c3ccccc3)c3ccccc3)C(C)=C1C2(C)C [Compound 7, 7-(N,N-Dimethylglycyl)Taxol]",Ability to assemble microtubules (order),microtubule assembly,"taxol >7-(N,N-dimethylglycyl)taxol(11)>2'(N,N-diethylaminopropionyl)taxol(8)>2'(N,N-dimethylglycyl)taxol(2)"
same,Order of effectiveness in B-16 melanoma cell proliferation study,B-16 melanoma cells,"taxol>2'-(N,N-dimethylglycyl)taxol>2'-(N,N-diethylaminopropionyl)taxol>7-(N,N-dimethylglycyl)taxol"
same,% T/C,"[3]; Table 2, 4.13 mg/kg",34%
same,ANML BODY WT DIFF (test minus control),"[3]; Table 2, 4.13 mg/kg",-.5
same,TEST BODY WT CHG,"[3]; Table 2, 4.13 mg/kg",-4.5
same,# OF ANMLS ALIVE CALC/TOTAL,"[3]; Table 2, 4.13 mg/kg",4/5
same,Average tumor WEIGHT CHANGE (DELTA),"[3]; Table 2, 4.13 mg/kg",4.92 MGS
same,"Average tumor weight, FINAL","[3]; Table 2, 4.13 mg/kg",5.66 MGS
same,% T/C,"[3]; Table 2, 8.25 mg/kg",23%
same,ANML BODY WT DIFF (test minus control),"[3]; Table 2, 8.25 mg/kg",.1
same,TEST BODY WT CHG,"[3]; Table 2, 8.25 mg/kg",-3.9
same,# OF ANMLS ALIVE CALC/TOTAL,"[3]; Table 2, 8.25 mg/kg",4/4
same,Average tumor WEIGHT CHANGE (DELTA),"[3]; Table 2, 8.25 mg/kg",3.38 MGS
same,"Average tumor weight, FINAL","[3]; Table 2, 8.25 mg/kg",4.19 MGS
same,% T/C,"[3]; Table 2, 16.50 mg/kg",-93%
same,ANML BODY WT DIFF (test minus control),"[3]; Table 2, 16.50 mg/kg",-1.7
same,TEST BODY WT CHG,"[3]; Table 2, 16.50 mg/kg",-5.7
same,# OF ANMLS ALIVE CALC/TOTAL,"[3]; Table 2, 16.50 mg/kg",3/4
same,Average tumor WEIGHT CHANGE (DELTA),"[3]; Table 2, 16.50 mg/kg",-.55 MGS
same,"Average tumor weight, FINAL","[3]; Table 2, 16.50 mg/kg",.04 MGS
same,ANML BODY WT DIFF (test minus control),"[3]; Table 2, 33.00 mg/kg",1.3
same,TEST BODY WT CHG,"[3]; Table 2, 33.00 mg/kg",-2.7
same,# OF ANMLS ALIVE CALC/TOTAL,"[3]; Table 2, 33.00 mg/kg",4/5
same,Average tumor WEIGHT CHANGE (DELTA),"[3]; Table 2, 33.00 mg/kg",-.74 MGS
same,"Average tumor weight, FINAL","[3]; Table 2, 33.00 mg/kg",.00 MGS
CC(=O)O[C@H]1C(=O)[C@]2(C)[C@@H](OC(=O)[C@H](C)N)C[C@H]3OC[C@@]3(OC(C)=O)[C@H]2[C@H](OC(=O)c2ccccc2)[C@]2(O)C[C@H](OC(=O)[C@H](O)[C@@H](NC(=O)c3ccccc3)c3ccccc3)C(C)=C1C2(C)C [Methanesulphonic acid salt of 7-(alanyl)taxol],solubility,Solubility; read-out: Solubility,> 2000 µg/mL
same,half-life,[2]; human plasma (20 μg/mL),11.9 h
COc1cc2c(c(OC)c1OC)-c1ccc(OC)c(=O)cc1[C@@H](NC(C)=O)CC2 [colchicine],Effect on microtubules,microtubules,depolymerize microtubules in cells
"CC(=O)O[C@H]1C(=O)[C@]2(C)[C@@H](OC(=O)CN(C)C)C[C@H]3OC[C@@]3(OC(C)=O)[C@H]2[C@H](OC(=O)c2ccccc2)[C@]2(O)C[C@H](OC(=O)[C@H](OC(=O)CN(C)C)[C@@H](NC(=O)c3ccccc3)c3ccccc3)C(C)=C1C2(C)C [dimethanesulphonic acid salt of 2'7-(N,N-dimethylglycyl)taxol]",solubility,Solubility; read-out: Solubility,> 10000 µg/mL
"CCN(CC)CCC(=O)O[C@@H](C(=O)O[C@H]1C[C@@]2(O)[C@@H](OC(=O)c3ccccc3)[C@@H]3[C@]4(OC(C)=O)CO[C@@H]4C[C@H](O)[C@@]3(C)C(=O)[C@H](OC(C)=O)C(=C1C)C2(C)C)[C@@H](NC(=O)c1ccccc1)c1ccccc1 [preferred compound 1, 2'(N,N-diethylaminopropionyl)taxol]",Ability to assemble microtubules (order),microtubule assembly,"taxol >7-(N,N-dimethylglycyl)taxol(11)>2'(N,N-diethylaminopropionyl)taxol(8)>2'(N,N-dimethylglycyl)taxol(2)"
same,Order of effectiveness in B-16 melanoma cell proliferation study,B-16 melanoma cells,"taxol>2'-(N,N-dimethylglycyl)taxol>2'-(N,N-diethylaminopropionyl)taxol>7-(N,N-dimethylglycyl)taxol"
CC[C@]1(O)C[C@@H]2CN(CCc3c([nH]c4ccccc34)[C@@](C(=O)OC)(c3cc4c(cc3OC)N(C)[C@H]3[C@@](O)(C(=O)OC)[C@H](OC(C)=O)[C@]5(CC)C=CCN6CC[C@]43[C@@H]65)C2)C1 [vinblastine],Effect on microtubules,microtubules,inhibit microtubule assembly and to depolymerize steady state microtubules
CC[C@]1(O)C[C@H]2CN(CCc3c([nH]c4ccccc34)[C@@](C(=O)OC)(c3cc4c(cc3OC)N(C=O)[C@H]3[C@@](O)(C(=O)OC)[C@H](OC(C)=O)[C@]5(CC)C=CCN6CC[C@]43[C@@H]65)C2)C1 [vincristine],Effect on microtubules,microtubules,inhibit microtubule assembly and to depolymerize steady state microtubules
